Source: US20080039422A1, “Vitamin B12-Containing Compositions and Methods of Use” (Transition Therapeutics Inc., priority 2004, published 2008)

Columns and labels:
[1] = Drug substance properties; format: physicochemical; conditions: 10 mg/ml aqueous solution
Experimental: Cyanocobalamin (CN-Cbl) is a cobalt containing vitamin and is reported to be sparingly soluble in water in the order of 1:80 or ˜12.5 mg/ml (Merck Index 1996). […] The material appears as dark red crystals or as an amorphous or crystalline red powder. It has a melting point of 300° C. and a molecular weight of 1355.38. The pH of a 10 mg/ml aqueous solution is 5.02.

[2] = CN-Cbl concentration in excipient solutions after challenge, mixing and heating; format: physicochemical
Experimental: The experiments conducted in this series feature cyanocobalamin (CN-Cbl). Varying amounts of CN-Cbl were added to various excipients, including water alone, water with one other agent (e.g., ethanol) and water with two other agents (e.g., ethanol and propylene glycol). The stability was tested after varying amounts of time, and following procedures in which the vitamin B12 compound and its excipient were combined by vigorous mixing and heated.
More specifically, for each excipient condition, CN-Cbl was weighed into an Eppendorf tube, and an appropriate volume of excipient solution was added to achieve the “challenge” concentration in a total volume of ˜0.4-0.7 ml. The tube was then vortexed before being heated to 60° C. for two hours, with additional mixing by vortexing carried out for 5-10 seconds every 5-10 minutes.
Following the mixing and heating procedure described above, the tubes were cooled to room temperature (RT) and left at room temperature for 1-2 hours. Before measuring the concentration of CN-Cbl, the solutions were clarified by centrifugation for ten minutes at rcf 16,100. […] Cyanocobalamin and cyanocobalamin-containing solutions were protected from light (by being kept covered with foil) as much as practicable.
In one study, CN-Cbl was combined with excipients containing propylene glycol, ethanol, PEG 300, or glycerol so that the final maximum concentration of CN-Cbl could be as high as 100 mg/ml. The amount of each excipient was also varied from 5-80% (however, not all possible variants were tested). […] The concentration of CN-Cbl to be solubilized (the “challenge”) in each case was 100 mg/ml of CN-Cbl, and the concentration of each of the excipients varied from 5% to 80% in water. […] The concentrations of CN-Cbl in other excipients were even greater. For example, the concentration of CN-Cbl in solutions containing 40 or 50% PEG 300 was about 45 mg/ml; the concentration in 15% ethanol was about 35 mg/ml; the concentration in 20% ethanol was about 52 mg/ml; and the concentrations in propylene glycol at any concentration over 30% was more than 85 mg/ml (see Table 1).
In other studies, combinations were tested of ethanol and propylene glycol or of ethanol and PEG 300. Tables 2A-2D are tables showing the concentrations of cyanocobalamin (CN-Cbl; mg/ml) in combinations of excipients. […] The concentrations of ethanol ranged from 0-20% and the concentrations of propylene glycol ranged from 0 to 60%. […] In Table 2C, the amount of propylene glycol and the amount of CN-Cbl (the “challenge”) varied. The excipient contained 20% ethanol and 0-40% propylene glycol, and the amount of CN-Cbl challenge added varied from 50-200 mg/ml. Table 2D reports final concentrations of CN-Cbl when excipients containing varying amounts of propylene glycol and ethanol were challenged with 400 mg/ml CN-Cbl.

cyanocobalamin [CN-Cbl]
pH of aqueous solution [1]: 5.02
final concentration of CN-Cbl ([2]; challenge 50 mg/ml, 20% ethanol and 0-40% propylene glycol): about 50 mg/ml
concentration of CN-Cbl ([2]; challenge 100 mg/mL, Ethanol 10.0% (v/v)): 29400 µg/mL
concentration of CN-Cbl ([2]; challenge 100 mg/mL, Glycerol 10.0% (v/v)): 18200 µg/mL
concentration of CN-Cbl ([2]; challenge 100 mg/mL, Glycerol 15.0% (v/v)): 19400 µg/mL
concentration of CN-Cbl ([2]; challenge 100 mg/mL, Glycerol 20.0% (v/v)): 21500 µg/mL
concentration of CN-Cbl ([2]; challenge 100 mg/mL, H2O): 14100 µg/mL
concentration of CN-Cbl ([2]; challenge 100 mg/mL, PEG 300 10.0% (v/v)): 24100 µg/mL
concentration of CN-Cbl ([2]; challenge 100 mg/mL, PEG 300 20.0% (v/v)): 34400 µg/mL
concentration of CN-Cbl ([2]; challenge 100 mg/mL, PEG 300 30.0% (v/v)): 40500 µg/mL
concentration of CN-Cbl ([2]; challenge 100 mg/mL, Propylene Glycol 10.0% (v/v)): 28100 µg/mL
concentration of CN-Cbl ([2]; challenge 100 mg/mL, Propylene Glycol 20.0% (v/v)): 41800 µg/mL
concentration of CN-Cbl ([2]; challenge 100 mg/mL, Propylene Glycol 30.0% (v/v)): 95300 µg/mL
concentration of CN-Cbl ([2]; challenge 100 mg/mL, Propylene Glycol 40.0% (v/v)): 95100 µg/mL
concentration of CN-Cbl ([2]; challenge 100 mg/mL, Propylene Glycol 50.0% (v/v)): 95100 µg/mL
concentration of CN-Cbl ([2]; challenge 100 mg/mL, Propylene Glycol 60.0% (v/v)): 95100 µg/mL
concentration of CN-Cbl ([2]; challenge 100 mg/mL, Propylene Glycol 70.0% (v/v)): 85300 µg/mL
concentration of CN-Cbl ([2]; challenge 100 mg/mL, Propylene Glycol 80% (v/v)): 90100 µg/mL
final concentration of CN-Cbl ([2]; challenge 100 mg/ml, 20% ethanol and 0-40% propylene glycol): about 100 mg/ml
concentration of CN-Cbl ([2]; challenge 100 mg/ml, propylene glycol at any concentration over 30%): more than 85 mg/ml
final concentration of CN-Cbl ([2]; challenge 175 mg/ml, 20% ethanol and 20% propylene glycol): about 177 mg/ml
concentration of CN-Cbl ([2]; challenge 200 mg/ml, PEG 300 40%, ethanol 5%): 77000 µg/mL
concentration of CN-Cbl ([2]; challenge 200 mg/ml, PEG 300 40%, ethanol 10%): 44400 µg/mL
concentration of CN-Cbl ([2]; challenge 200 mg/ml, PEG 300 40%, ethanol 15%): 62500 µg/mL
concentration of CN-Cbl ([2]; challenge 200 mg/ml, PG 0%, ethanol 0%): 17500 µg/mL
concentration of CN-Cbl ([2]; challenge 200 mg/ml, PG 0%, ethanol 5%): 22500 µg/mL
concentration of CN-Cbl ([2]; challenge 200 mg/ml, PG 0%, ethanol 10%): 28500 µg/mL
concentration of CN-Cbl ([2]; challenge 200 mg/ml, PG 0%, ethanol 15%): 27700 µg/mL
concentration of CN-Cbl ([2]; challenge 200 mg/ml, PG 0%, ethanol 20%): 176000 µg/mL
concentration of CN-Cbl ([2]; challenge 200 mg/ml, PG 20%, ethanol 0%): 31300 µg/mL
concentration of CN-Cbl ([2]; challenge 200 mg/ml, PG 20%, ethanol 5%): 34400 µg/mL
concentration of CN-Cbl ([2]; challenge 200 mg/ml, PG 20%, ethanol 10%): 55600 µg/mL
concentration of CN-Cbl ([2]; challenge 200 mg/ml, PG 20%, ethanol 15%): 182500 µg/mL
concentration of CN-Cbl ([2]; challenge 200 mg/ml, PG 20%, ethanol 20%): 177500 µg/mL
concentration of CN-Cbl ([2]; challenge 200 mg/ml, PG 30%, ethanol 0%): 35900 µg/mL
concentration of CN-Cbl ([2]; challenge 200 mg/ml, PG 30%, ethanol 5%): 64800 µg/mL
concentration of CN-Cbl ([2]; challenge 200 mg/ml, PG 30%, ethanol 15%): 150500 µg/mL
concentration of CN-Cbl ([2]; challenge 200 mg/ml, PG 30%, ethanol 20%): 180200 µg/mL
concentration of CN-Cbl ([2]; challenge 200 mg/ml, PG 40%, ethanol 0%): 172500 µg/mL
concentration of CN-Cbl ([2]; challenge 200 mg/ml, PG 40%, ethanol 5%): 177100 µg/mL
concentration of CN-Cbl ([2]; challenge 200 mg/ml, PG 40%, ethanol 10%): 184400 µg/mL
concentration of CN-Cbl ([2]; challenge 200 mg/ml, PG 40%, ethanol 20%): 186000 µg/mL
concentration of CN-Cbl ([2]; challenge 200 mg/ml, PG 50%, ethanol 0%): 145100 µg/mL
concentration of CN-Cbl ([2]; challenge 200 mg/ml, PG 50%, ethanol 5%): 179400 µg/mL
concentration of CN-Cbl ([2]; challenge 200 mg/ml, PG 50%, ethanol 10%): 190200 µg/mL
concentration of CN-Cbl ([2]; challenge 200 mg/ml, PG 50%, ethanol 15%): 179400 µg/mL
concentration of CN-Cbl ([2]; challenge 200 mg/ml, PG 50%, ethanol 20%): 187900 µg/mL
concentration of CN-Cbl ([2]; challenge 200 mg/ml, PG 60%, ethanol 0%): 185200 µg/mL
concentration of CN-Cbl ([2]; challenge 200 mg/ml, PG 60%, ethanol 5%): 184800 µg/mL
concentration of CN-Cbl ([2]; challenge 200 mg/ml, PG 60%, ethanol 10%): 186800 µg/mL
concentration of CN-Cbl ([2]; challenge 200 mg/ml, PG 60%, ethanol 15%): 186400 µg/mL
concentration of CN-Cbl ([2]; challenge 200 mg/ml, PG 60%, ethanol 20%): 196000 µg/mL
concentration of CN-Cbl ([2]; control experiments: water, challenged with 200 mg/ml): about 20 mg/ml
CN-Cbl solubilized ([2]; water, regardless of the amount of the challenge (50-200 mg/ml)): no more than 30 mg/ml
